In ChEMBL document CHEMBL4680196, “Structurally novel PI3Kδ/γ dual inhibitors characterized by a seven-membered spirocyclic spacer: The SARs investigation and PK evaluation” (Eur J Med Chem, 2020):

Tests used:
SU-DHL-6 [1] = assay: Antiproliferative activity against human SU-DHL-6 cells assessed as reduction in cell viability measured after 72 hrs by MTT assay; assay type: functional
[2] = target: PI3-kinase p110-delta/p85-alpha (Homo sapiens, UniProt O00329)
[3] = target: PI3-kinase p110-alpha/p85-alpha (Homo sapiens, UniProt P42336)
[4] = target: Phosphatidylinositol 3-kinase regulatory subunit beta/Phosphatidylinositol 4,5-bisphosphate 3-kinase catalytic subunit beta isoform (Homo sapiens, UniProt P42338)
[5] = target: Phosphatidylinositol 4,5-bisphosphate 3-kinase catalytic subunit gamma isoform (Homo sapiens, UniProt P48736)
Homo sapiens [6] = species: Homo sapiens
Homo sapiens [7] = species: Homo sapiens; remark: listed apart in the source
Homo sapiens [8] = species: Homo sapiens; remark: listed apart in the source
SU-DHL-6 [9] = assay: Inhibition of PI3K in human SU-DHL-6 cells assessed as reduction in AKT phosphorylation at Ser473 residues after 2 hrs by Western blot analysis; assay type: cell-based
SU-DHL-6 [10] = assay: Inhibition of PI3K in human SU-DHL-6 cells assessed as reduction in S6K1 phosphorylation at Thr389 residues after 2 hrs by Western blot analysis; assay type: cell-based
[11] = Elimination half life in Sprague-Dawley rat at 5 mg/kg, iv by UHPLC-LC/MS analysis; assay type: ADME, organism-based; conditions: in vivo, read-out: beta t1/2 (converted)
[12] = AUC (0 to t) in Sprague-Dawley rat at 5 mg/kg, iv by UHPLC-LC/MS analysis; assay type: ADME, organism-based; set-up: dose 5 mg/kg; conditions: in vivo
[13] = Volume of distribution at steady state in Sprague-Dawley rat at 5 mg/kg, iv or po by UHPLC-LC/MS analysis; assay type: ADME, organism-based; conditions: in vivo, read-out: Vdss
[14] = Clearance in Sprague-Dawley rat at 5 mg/kg, […] by UHPLC-LC/MS analysis; assay type: ADME, organism-based; conditions: in vivo
[15] = Oral bioavailability in Sprague-Dawley rat at 5 mg/kg by UHPLC-LC/MS analysis; assay type: ADME, organism-based; conditions: in vivo
[16] = Elimination half life in Sprague-Dawley rat at 5 mg/kg, po by UHPLC-LC/MS analysis; assay type: ADME, organism-based; conditions: in vivo, read-out: beta t1/2 (converted)
[17] = AUC (0 to t) in Sprague-Dawley rat at 5 mg/kg, po by UHPLC-LC/MS analysis; assay type: ADME, organism-based; set-up: dose 5 mg/kg; conditions: in vivo

Sequence of PI3-kinase p110-delta/p85-alpha (P27986 whole entry): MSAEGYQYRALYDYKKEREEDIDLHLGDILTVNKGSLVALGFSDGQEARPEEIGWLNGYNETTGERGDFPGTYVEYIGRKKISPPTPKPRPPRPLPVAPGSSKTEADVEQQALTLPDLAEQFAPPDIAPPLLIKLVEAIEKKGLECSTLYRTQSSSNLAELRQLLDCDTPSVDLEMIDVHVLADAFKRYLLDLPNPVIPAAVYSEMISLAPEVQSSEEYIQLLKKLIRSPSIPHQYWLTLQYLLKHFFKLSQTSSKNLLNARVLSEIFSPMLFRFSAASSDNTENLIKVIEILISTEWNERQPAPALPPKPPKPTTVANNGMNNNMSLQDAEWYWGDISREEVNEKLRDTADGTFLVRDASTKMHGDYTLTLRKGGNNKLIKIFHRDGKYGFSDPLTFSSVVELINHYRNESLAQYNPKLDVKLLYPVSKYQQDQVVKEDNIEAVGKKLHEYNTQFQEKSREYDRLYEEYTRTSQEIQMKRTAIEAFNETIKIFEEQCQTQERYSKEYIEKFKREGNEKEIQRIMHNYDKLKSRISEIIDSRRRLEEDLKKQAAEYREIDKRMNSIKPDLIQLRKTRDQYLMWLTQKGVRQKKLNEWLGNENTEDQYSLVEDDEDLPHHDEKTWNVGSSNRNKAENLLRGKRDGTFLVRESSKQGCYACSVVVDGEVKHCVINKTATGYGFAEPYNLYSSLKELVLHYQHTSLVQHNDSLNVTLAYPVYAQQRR
Sequence of PI3-kinase p110-delta/p85-alpha (O00329 whole entry): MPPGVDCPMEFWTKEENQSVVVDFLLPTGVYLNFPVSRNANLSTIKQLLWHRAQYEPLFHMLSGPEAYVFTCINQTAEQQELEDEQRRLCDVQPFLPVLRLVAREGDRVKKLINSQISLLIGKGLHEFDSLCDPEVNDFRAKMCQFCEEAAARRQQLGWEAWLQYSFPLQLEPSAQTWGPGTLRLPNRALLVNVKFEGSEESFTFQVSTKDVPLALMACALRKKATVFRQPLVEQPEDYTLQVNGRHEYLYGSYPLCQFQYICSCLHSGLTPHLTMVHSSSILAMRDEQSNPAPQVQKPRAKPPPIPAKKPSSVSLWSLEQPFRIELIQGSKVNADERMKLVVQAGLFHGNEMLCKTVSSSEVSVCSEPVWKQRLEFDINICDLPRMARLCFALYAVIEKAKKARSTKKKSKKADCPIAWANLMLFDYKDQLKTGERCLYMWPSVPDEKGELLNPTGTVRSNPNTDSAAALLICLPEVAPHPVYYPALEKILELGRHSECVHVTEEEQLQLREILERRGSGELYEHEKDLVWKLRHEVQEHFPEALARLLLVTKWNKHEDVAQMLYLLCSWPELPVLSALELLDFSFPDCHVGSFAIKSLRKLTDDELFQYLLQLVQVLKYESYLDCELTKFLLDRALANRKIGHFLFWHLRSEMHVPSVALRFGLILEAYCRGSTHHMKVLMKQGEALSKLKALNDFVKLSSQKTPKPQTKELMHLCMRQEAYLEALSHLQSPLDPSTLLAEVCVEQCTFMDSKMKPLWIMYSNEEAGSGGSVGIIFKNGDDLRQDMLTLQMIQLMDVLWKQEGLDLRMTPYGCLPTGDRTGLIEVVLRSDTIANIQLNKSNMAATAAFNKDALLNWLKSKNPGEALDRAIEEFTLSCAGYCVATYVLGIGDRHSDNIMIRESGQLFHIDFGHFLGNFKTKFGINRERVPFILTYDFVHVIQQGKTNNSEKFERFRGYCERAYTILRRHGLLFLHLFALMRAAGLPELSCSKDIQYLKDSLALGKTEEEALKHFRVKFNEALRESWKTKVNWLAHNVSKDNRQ
Sequence of Phosphatidylinositol 4,5-bisphosphate 3-kinase catalytic subunit gamma isoform (P48736 whole entry, canonical isoform): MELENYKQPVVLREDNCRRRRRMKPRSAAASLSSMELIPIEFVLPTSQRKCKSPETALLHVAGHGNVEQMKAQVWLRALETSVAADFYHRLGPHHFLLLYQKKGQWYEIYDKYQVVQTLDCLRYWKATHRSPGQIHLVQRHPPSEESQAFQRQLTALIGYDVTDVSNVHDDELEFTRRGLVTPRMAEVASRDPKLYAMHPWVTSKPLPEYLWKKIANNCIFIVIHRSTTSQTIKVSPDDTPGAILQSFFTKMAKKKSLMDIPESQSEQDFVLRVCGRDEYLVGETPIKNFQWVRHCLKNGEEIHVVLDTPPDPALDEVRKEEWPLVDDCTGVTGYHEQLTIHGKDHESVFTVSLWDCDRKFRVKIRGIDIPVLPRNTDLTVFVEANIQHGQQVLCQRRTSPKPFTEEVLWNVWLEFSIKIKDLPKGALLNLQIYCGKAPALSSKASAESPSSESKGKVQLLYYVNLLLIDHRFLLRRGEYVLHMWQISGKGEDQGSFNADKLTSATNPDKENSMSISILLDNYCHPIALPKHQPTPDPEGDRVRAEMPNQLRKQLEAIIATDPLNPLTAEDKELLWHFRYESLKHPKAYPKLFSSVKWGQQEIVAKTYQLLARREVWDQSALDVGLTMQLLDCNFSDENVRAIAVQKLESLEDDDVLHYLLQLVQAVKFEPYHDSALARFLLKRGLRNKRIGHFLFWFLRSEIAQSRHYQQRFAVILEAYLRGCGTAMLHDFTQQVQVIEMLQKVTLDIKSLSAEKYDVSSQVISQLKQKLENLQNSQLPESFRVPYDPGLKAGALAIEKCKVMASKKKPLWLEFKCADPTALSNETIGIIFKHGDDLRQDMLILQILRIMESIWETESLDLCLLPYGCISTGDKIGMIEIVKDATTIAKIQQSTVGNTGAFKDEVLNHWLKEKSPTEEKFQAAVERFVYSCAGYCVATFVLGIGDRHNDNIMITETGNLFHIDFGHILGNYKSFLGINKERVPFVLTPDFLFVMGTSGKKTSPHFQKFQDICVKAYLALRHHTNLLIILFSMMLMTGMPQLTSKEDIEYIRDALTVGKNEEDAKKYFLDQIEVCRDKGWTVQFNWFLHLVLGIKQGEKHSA
Sequence of Phosphatidylinositol 3-kinase regulatory subunit beta/Phosphatidylinositol 4,5-bisphosphate 3-kinase catalytic subunit beta isoform (P42338 whole entry, canonical isoform): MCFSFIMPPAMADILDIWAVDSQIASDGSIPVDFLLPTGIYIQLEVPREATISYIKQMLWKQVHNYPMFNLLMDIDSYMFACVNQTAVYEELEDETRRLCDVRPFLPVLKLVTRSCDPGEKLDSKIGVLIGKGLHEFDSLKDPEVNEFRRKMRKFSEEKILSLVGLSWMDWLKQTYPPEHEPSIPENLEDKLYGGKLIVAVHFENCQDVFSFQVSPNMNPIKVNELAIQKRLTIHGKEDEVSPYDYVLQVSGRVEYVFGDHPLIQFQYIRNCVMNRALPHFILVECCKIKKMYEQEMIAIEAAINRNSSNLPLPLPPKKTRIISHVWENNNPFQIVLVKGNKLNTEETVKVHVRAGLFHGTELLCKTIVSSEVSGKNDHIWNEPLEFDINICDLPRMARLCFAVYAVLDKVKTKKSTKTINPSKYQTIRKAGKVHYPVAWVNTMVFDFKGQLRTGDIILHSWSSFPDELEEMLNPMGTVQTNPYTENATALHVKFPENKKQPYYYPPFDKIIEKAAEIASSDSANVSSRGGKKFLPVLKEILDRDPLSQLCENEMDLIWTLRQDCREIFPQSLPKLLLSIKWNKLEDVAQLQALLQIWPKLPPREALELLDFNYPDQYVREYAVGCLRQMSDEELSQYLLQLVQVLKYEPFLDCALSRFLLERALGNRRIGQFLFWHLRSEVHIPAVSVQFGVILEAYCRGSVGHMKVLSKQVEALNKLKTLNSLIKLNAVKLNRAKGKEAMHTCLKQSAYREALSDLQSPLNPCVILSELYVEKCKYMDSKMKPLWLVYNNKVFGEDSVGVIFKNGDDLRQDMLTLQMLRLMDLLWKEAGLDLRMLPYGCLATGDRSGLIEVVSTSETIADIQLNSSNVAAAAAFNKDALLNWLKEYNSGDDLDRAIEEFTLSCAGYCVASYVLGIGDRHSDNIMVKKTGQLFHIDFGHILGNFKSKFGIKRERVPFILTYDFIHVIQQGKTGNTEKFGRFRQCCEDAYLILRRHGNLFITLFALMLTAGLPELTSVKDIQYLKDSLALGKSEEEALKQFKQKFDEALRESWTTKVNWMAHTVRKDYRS
Sequence of Phosphatidylinositol 3-kinase regulatory subunit beta/Phosphatidylinositol 4,5-bisphosphate 3-kinase catalytic subunit beta isoform (O00459 whole entry, further chain, canonical isoform): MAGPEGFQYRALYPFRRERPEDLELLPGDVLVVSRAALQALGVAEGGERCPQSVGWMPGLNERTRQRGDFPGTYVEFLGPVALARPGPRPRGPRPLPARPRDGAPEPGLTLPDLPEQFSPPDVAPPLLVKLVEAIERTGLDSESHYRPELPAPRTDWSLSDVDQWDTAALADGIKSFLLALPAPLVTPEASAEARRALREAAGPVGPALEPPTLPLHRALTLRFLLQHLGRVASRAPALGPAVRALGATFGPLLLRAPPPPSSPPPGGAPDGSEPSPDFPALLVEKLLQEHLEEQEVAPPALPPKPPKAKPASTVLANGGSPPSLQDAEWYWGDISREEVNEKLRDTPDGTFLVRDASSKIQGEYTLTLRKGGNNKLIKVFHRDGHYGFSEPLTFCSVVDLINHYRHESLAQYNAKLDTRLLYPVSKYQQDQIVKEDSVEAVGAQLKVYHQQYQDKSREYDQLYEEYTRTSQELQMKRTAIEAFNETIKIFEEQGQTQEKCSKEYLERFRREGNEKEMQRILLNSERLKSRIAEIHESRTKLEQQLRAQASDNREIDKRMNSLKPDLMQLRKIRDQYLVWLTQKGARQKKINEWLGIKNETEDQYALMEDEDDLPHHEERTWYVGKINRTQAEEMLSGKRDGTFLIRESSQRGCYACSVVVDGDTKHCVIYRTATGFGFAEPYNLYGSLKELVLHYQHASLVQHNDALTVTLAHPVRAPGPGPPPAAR

Compound	GI50 (SU-DHL-6 [1])	IC50 [2]	also measured
N#Cc1c(N)ncnc1N1CC2(CC2)C[C@H]1c1nc2ccc(F)cc2c(=O)n1-c1ccccc1	0.945 µM	0.0096 µM	
O=c1c2c(Cl)cccc2nc([C@@H]2CC3(CC3)CN2c2nc(F)nc3[nH]cnc23)n1-c1ccccc1	2.81 µM	0.038 µM	
N#Cc1c(N)ncnc1N1CC2(CC2)C[C@H]1c1nc2cccc(Cl)c2c(=O)n1-c1ccccc1	3.42 µM	0.0037 µM	
N#Cc1c(N)nc(N)nc1N1CC2(CC2)C[C@H]1c1nc2cccc(Cl)c2c(=O)n1-c1ccccc1	0.033 µM	0.001 µM	IC50 [3]: 0.221 µM; IC50 [4]: 0.174 µM; IC50 [5]: 0.0043 µM; Ratio IC50 (Homo sapiens [6]): 221; Ratio IC50 (Homo sapiens [7]): 174; Ratio IC50 (Homo sapiens [8]): 4; inhibition (SU-DHL-6 [9]): Dose-dependent effect; inhibition (SU-DHL-6 [10]): Dose-dependent effect; half-life [11]: 3 h; AUC(0-t) [12]: 5580 ng·h/mL; Vd [13]: 3.9 L/kg; CL/F [14]: 15 mL/min/kg; bioavailability [15]: 87.5%; half-life [16]: 14.3 h; AUC(0-t) [17]: 4880 ng·h/mL
Cc1nc(N)nc(N2CC3(CC3)C[C@H]2c2nc3cccc(Cl)c3c(=O)n2-c2ccccc2)c1C#N	0.716 µM	0.0096 µM	
N#Cc1c(N)ncnc1N1CC2(CC2)C[C@H]1c1nc2cccc(F)c2c(=O)n1-c1ccccc1	0.867 µM	0.015 µM	
O=c1c2c(F)cccc2nc([C@@H]2CC3(CC3)CN2c2ncnc3[nH]cnc23)n1-c1ccccc1	0.813 µM	0.043 µM	
Cc1nc(N)nc(N2CC3(CC3)C[C@H]2c2nc3cccc(F)c3c(=O)n2-c2ccccc2)c1C#N	1.04 µM	0.0094 µM	
O=c1c2c(F)cccc2nc([C@@H]2CC3(CC3)CN2c2ncnc3[nH]cnc23)n1C1CCCC1		0.396 µM	
O=c1c2c(F)cccc2nc([C@@H]2CC3(CC3)CN2c2ncnc3[nH]cnc23)n1Cc1ccccc1		0.813 µM	
N#Cc1c(N)nc(N)nc1N1CC2(CC2)C[C@H]1c1nc2cccc(F)c2c(=O)n1-c1ccccc1	0.053 µM	0.0054 µM	
O=c1c2c(Cl)cccc2nc([C@@H]2CC3(CC3)CN2c2nc(Cl)nc3[nH]cnc23)n1-c1ccccc1		0.406 µM	
O=c1c2c(F)cccc2nc([C@@H]2CC3(CC3)CN2c2ncnc3[nH]cnc23)n1C1CCCCC1		0.444 µM	
O=c1c2c(Cl)cccc2nc([C@@H]2CC3(CC3)CN2c2ncnc3[nH]cnc23)n1-c1ccccc1	0.601 µM	0.013 µM	IC50 [3]: > 5 µM; IC50 [4]: 2.64 µM; IC50 [5]: 0.113 µM; Ratio IC50 (Homo sapiens [6]): > 385; Ratio IC50 (Homo sapiens [7]): 203; Ratio IC50 (Homo sapiens [8]): 9
Cc1cccc2nc([C@@H]3CC4(CC4)CN3c3ncnc4[nH]cnc34)n(-c3ccccc3)c(=O)c12	0.107 µM	0.016 µM	
O=c1c2cc(F)ccc2nc([C@@H]2CC3(CC3)CN2c2ncnc3[nH]cnc23)n1-c1ccccc1	0.937 µM	0.048 µM	
CC[C@H](Nc1ncnc2[nH]cnc12)c1nc2cccc(F)c2c(=O)n1-c1ccccc1 [IDELALISIB]	0.034 µM		
